Data from article PMC11565046, “Rational design of 2H-chromene-based antiphytovirals that inhibit virion assembly by outcompeting virus capsid-RNA interactions” (iScience, 2024).
Like-named read-outs stand apart in the source and are kept apart here.

Tests used:
PVY [1] = assay: Inactivating activity against PVY, half-leaf method on Chenopodium amaranticolor; assay type: in vivo, potato virus Y; settings: Potato virus Y, in Chenopodium amaranticolor
Method: (§1) According to previous reports,[46] PVY was infested in Nicotiana tabacum K326, and PVY was harvested and purified after showing severe infection symptoms on the leaves. The literature-guided protocol was followed to assess the curative, prophylactic, and […] potential of the target compounds under investigation.[15]
Target compound solution (1,000 μg/mL) and 2 × virus solution were combined in equal quantities and incubated for 30 min. Evenly distribute emery onto the leaf blades, and apply the mixture of virus and compound solution onto the right side of C. amaranticolor leaf blades. Following this, an identical quantity of a 1× virus solution was applied to the untreated side of the leaf. Following a duration of 1.5 h, the emery residue present on the leaf surface was removed using a rinsing process utilizing water. The plants were incubated within a controlled greenhouse environment, maintaining a consistent temperature of 25°C. After 5−7 days, they proceeded to statistics the number of necrotic spots on the leaves. For each chemical, triplicate experiments were undertaken, and the average percentage of inhibition was subsequently determined.

PVY [2] = assay: Protective activity against PVY, half-leaf method on Chenopodium amaranticolor; assay type: in vivo; settings: Potato virus Y, in Chenopodium amaranticolor; 500 μg/mL; Chenopodium amaranticolor leaves; average of three replicates
Method: as §1
A 500 μg/mL solution of the targeted compound was delicately applied to one side of C. amaranticolor leaves, while the other side was treated with a 1% Tween 80 aqueous solution. The plants were positioned in a greenhouse set at 25°C. Following a 24 h period, the entire leaf surface was inoculated with PVY by uniformly distributing 200–300 mesh emery. After 1.5 h, the emery was washed off with water, and the plants were returned to the greenhouse. After 5–7 days, the number of necrotic spots was tallied, with the assessment based on the greenhouse population. Each compound was tested in triplicate, and the average inhibition rate was subsequently calculated.

[3] = Chenopodium amaranticolor leaves, read-out: EC50 for inactivating activity
[4] = inactivating activity, Table S1, read-out: Experimental pEC50 (converted)

Structure (SMILES) | melting point | EC50 (PVY [1]; [3]) | EC50 (PVY [1]; [4]) | inhibition at 500 µg/mL (PVY [2])
CC1(C)C=Cc2c(ccc(/C=N/c3ccc(NS(=O)(=O)c4ccc(Cl)cc4Cl)cc3)c2O)O1 [Compound C31] | 154 to 156 °C | 976 ± 20 µg/mL | 1950 µM | 
CC(C)=CCCC1(C)C=Cc2c(ccc(/C=N/c3ccc(NS(=O)(=O)c4c(F)cccc4F)cc3)c2O)O1 (stereo not shown) [Compound C47] | 80 to 82 °C | 630 ± 11.2 µg/mL | 1170 µM | 
Cc1noc(C)c1S(=O)(=O)Nc1ccc(/N=C/c2ccc3c(c2O)C=CC(C)(C)O3)cc1 [Compound C39] | 195 to 197 °C | 397.1 ± 2.3 µg/mL | 877 µM | 
CC1(C)C=Cc2c(ccc(C=Nc3ccc(NS(=O)(=O)CC45CCC(CC4=O)C5(C)C)cc3)c2O)O1 (stereo not shown) [Compound C40] | 186 to 188 °C | 204 ± 7.1 µg/mL | 402 µM | 
CCCCCCCCS(=O)(=O)Nc1ccc(/N=C/c2ccc3c(c2O)C=CC(C)(C)O3)cc1 [Compound C3] | 94 to 96 °C | 605 ± 12.2 µg/mL | 1290 µM | 
CC1(C)C=Cc2c(ccc(/C=N/c3ccc(NS(=O)(=O)c4cccc(C(F)(F)F)c4)cc3)c2O)O1 [Compound C35] | 123 to 125 °C | 803 ± 12.3 µg/mL | 1600 µM | 
CC1(C)C=Cc2c(ccc(/C=N/c3ccc(NS(=O)(=O)c4ccc([N+](=O)[O-])cc4)cc3)c2O)O1 [Compound C12] | 164 to 166 °C | 400 ± 7.5 µg/mL | 836 µM | 
CC(=O)Nc1ccc(S(=O)(=O)Nc2ccc(/N=C/c3ccc4c(c3O)C=CC(C)(C)O4)cc2)cc1 [Compound C21] | 161 to 163 °C | 1020 µg/mL | 2080 µM | 
CC1(C)C=Cc2c(ccc(/C=N/c3ccc(NS(=O)(=O)c4ccc(C(C)(C)C)cc4)cc3)c2O)O1 [Compound C20] | 142 to 144 °C | 1000 µg/mL | 2050 µM | 
CC1(C)C=Cc2c(ccc(/C=N/c3ccc(NS(=O)(=O)C4CC4)cc3)c2O)O1 [Compound C13] | 147 to 149 °C | 531 ± 20.7 µg/mL | 1330 µM | 
CC(C)=CCCC1(C)C=Cc2c(ccc(/C=N/c3ccc(NS(=O)(=O)c4ccc(Cl)cc4)cc3)c2O)O1 (stereo not shown) [Compound C41] | 115 to 117 °C | 781 ± 15.3 µg/mL | 1460 µM | 
COc1ccc(S(=O)(=O)Nc2ccc(/N=C/c3ccc4c(c3O)C=CC(C)(C)O4)cc2)cc1 [Compound C1, (E) -N-(4-(((5-hydroxy-2,2-dimethyl-2H-chromen-6-yl)methylene)amino)phenyl) -4-methoxybenzenesulfonamide] | 139 to 141 °C | 441 ± 5.2 µg/mL | 951 µM | 
CC1(C)C=Cc2c(ccc(/C=N/c3ccc(NS(=O)(=O)c4ccc(OC(F)(F)F)cc4)cc3)c2O)O1 [Compound C30] | 128 to 130 °C | 834 ± 18.3 µg/mL | 1610 µM | 
CC1(C)C=Cc2c(ccc(/C=N/c3ccc(NS(=O)(=O)c4ccc(F)cc4)cc3)c2O)O1 [Compound C5] | 144 to 146 °C | 165 ± 8.7 µg/mL | 366 µM | 
CC(C)=CCCC1(C)C=Cc2c(ccc(/C=N/c3ccc(NS(=O)(=O)c4ccc(Cl)s4)cc3)c2O)O1 (stereo not shown) [Compound C43] | 97 to 99 °C | 512 ± 11 µg/mL | 944 µM | 
CC(C)=CCCC1(C)C=Cc2c(ccc(/C=N/c3ccc(NS(=O)(=O)c4ccc(C(F)(F)F)cc4)cc3)c2O)O1 (stereo not shown) [Compound C46] | 130 to 132 °C | 522 ± 8.1 µg/mL | 916 µM | 
CC(C)=CCCC1(C)C=Cc2c(ccc(/C=N/c3ccc(NS(=O)(=O)c4cccc(F)c4)cc3)c2O)O1 (stereo not shown) [Compound C45] | 113 to 115 °C | 516 ± 9 µg/mL | 991 µM | 
CC(C)=CCCC1(C)C=Cc2c(ccc(/C=N/c3ccc(NS(=O)(=O)c4ccc(Br)s4)cc3)c2O)O1 (stereo not shown) [Compound C49] | 75 to 77 °C | 553 ± 9.3 µg/mL | 944 µM | 

Structure (SMILES) | melting point | EC50 (PVY [1]; [3]) | EC50 (PVY [1]; [4]) | inhibition at 500 µg/mL (PVY [2])
CC1(C)C=Cc2c(ccc(/C=N/c3ccc(NS(=O)(=O)c4cccnc4)cc3)c2O)O1 [Compound C9] | 150 to 152 °C | 310 ± 8.6 µg/mL | 713 µM | 
CC1(C)C=Cc2c(ccc(/C=N/c3ccc(NS(=O)(=O)c4ccc(C(F)(F)F)cc4)cc3)c2O)O1 [Compound C2] | 132 to 134 °C | 255.7 ± 0.72 µg/mL | 509 µM | 
CC1(C)C=Cc2c(ccc(/C=N/c3ccc(NS(=O)(=O)c4cccc(F)c4)cc3)c2O)O1 [Compound C7] | 164 to 166 °C | 100 ± 5.7 µg/mL | 222 µM | 60 to 70%
CC1(C)C=Cc2c(ccc(/C=N/c3ccc(NS(=O)(=O)c4ccccc4)cc3)c2O)O1 [Compound C17] | 134 to 136 °C | 168 ± 4.8 µg/mL | 388 µM | 
CC1(C)C=Cc2c(ccc(/C=N/c3ccc(NS(=O)(=O)c4cc(Cl)cc(Cl)c4)cc3)c2O)O1 [Compound C23] | 211 to 213 °C | 871 ± 17.3 µg/mL | 1730 µM | 
CC1(C)C=Cc2c(ccc(/C=N/c3ccc(NS(=O)(=O)c4cc(F)ccc4F)cc3)c2O)O1 [Compound C15] | 180 to 182 °C | 903 ± 14.3 µg/mL | 1920 µM | 
CC1(C)C=Cc2c(ccc(/C=N/c3ccc(NS(=O)(=O)c4ccccc4C(F)(F)F)cc3)c2O)O1 [Compound C22] | 130 to 132 °C | 587 ± 9.9 µg/mL | 1170 µM | 
CC1(C)C=Cc2c(ccc(/C=N/c3ccc(NS(=O)(=O)c4ccccc4Cl)cc3)c2O)O1 [Compound C25] | 166 to 168 °C | 244 ± 10.2 µg/mL | 521 µM | 
CC1(C)C=Cc2c(ccc(/C=N/c3ccc(NS(=O)(=O)c4cccc(C#N)c4)cc3)c2O)O1 [Compound C11] | 152 to 154 °C | 703 ± 25.3 µg/mL | 1530 µM | 
CC(C)=CCCC1(C)C=Cc2c(ccc(/C=N/c3ccc(NS(=O)(=O)c4cc(F)cc(F)c4)cc3)c2O)O1 (stereo not shown) [Compound C48] | 138 to 140 °C | 717 ± 17.8 µg/mL | 1330 µM | 
CC1(C)C=Cc2c(ccc(/C=N/c3ccc(NS(=O)(=O)c4cc(Cl)ccc4Cl)cc3)c2O)O1 [Compound C14] | 148 to 150 °C | 751 ± 19.4 µg/mL | 1500 µM | 
Cc1cc(C)c(S(=O)(=O)Nc2ccc(/N=C/c3ccc4c(c3O)C=CC(C)(C)O4)cc2)c(C)c1 [Compound C19] | 137 to 139 °C | 492 ± 11.2 µg/mL | 1040 µM | 
CC(C)=CCCC1(C)C=Cc2c(ccc(/C=N/c3ccc(NS(=O)(=O)c4cccc(C)c4)cc3)c2O)O1 (stereo not shown) [Compound C44] | 84 to 86 °C | 882 ± 17.3 µg/mL | 1710 µM | 
CCc1ccc(S(=O)(=O)Nc2ccc(/N=C/c3ccc4c(c3O)C=CC(C)(C)O4)cc2)cc1 [Compound C18] | 121 to 123 °C | 202 ± 3.8 µg/mL | 438 µM | 
CC1(C)C=Cc2c(ccc(/C=N/c3ccc(NS(=O)(=O)c4cccs4)cc3)c2O)O1 [Compound C4] | 148 to 150 °C | 667 ± 20.1 µg/mL | 1520 µM | 
CC1(C)C=Cc2c(ccc(/C=N/c3ccc(NS(=O)(=O)c4ccccc4F)cc3)c2O)O1 [Compound C8] | 175 to 177 °C | 369 ± 9.9 µg/mL | 667 µM | 
CC1(C)C=Cc2c(ccc(/C=N/c3ccc(NS(=O)(=O)c4ccccc4Br)cc3)c2O)O1 [Compound C33] | 170 to 172 °C | 139 ± 3.2 µg/mL | 272 µM | 
